Laboratory results: the NIST ThermoML archive (doi:10.1021/je900278v)
± gives the expanded uncertainty stated by the source.

Assays:
[1] = xn = mol fraction of the nth substance listed; settings: 101 kPa, Liquid; for viscosity: 293.15 K, Capillary tube (Ostwald / Ubbelohde) method; for mass density: 298.15 K
[2] = 101 kPa, Liquid; for viscosity: 293.15 K, Capillary tube (Ostwald / Ubbelohde) method; for mass density: 298.15 K

BrCCBr [1,2-dibromoethane] + CCCCCCO
[1]
Settings | mass density [kg/m3] | viscosity [mPa·s]
x1 = 0.0402 | 856.608 ± 0.41 | 4.925 ± 0.033
x1 = 0.0682 | 883.413 ± 0.38 | 4.703 ± 0.031
x1 = 0.1276 | 941.916 ± 0.31 | 4.275 ± 0.028
x1 = 0.2056 | 1022.36 ± 0.28 | 3.781 ± 0.025
x1 = 0.2686 | 1090.47 ± 0.37 | 3.412 ± 0.022
x1 = 0.3892 | 1228.97 ± 0.57 | 2.862 ± 0.019
x1 = 0.4277 | 1276.43 ± 0.66 | 2.711 ± 0.018
x1 = 0.5444 | 1427.13 ± 0.9 | 2.325 ± 0.015
x1 = 0.6405 | 1562 ± 1.1 | 2.07 ± 0.014
x1 = 0.7326 | 1701.64 ± 1.4 | 1.877 ± 0.012
x1 = 0.8519 | 1899.69 ± 1.7 | 1.726 ± 0.011
x1 = 0.9273 | 2036.52 ± 2 | 1.69 ± 0.011
x1 = 0.9587 | 2096.51 ± 2.1 | 1.692 ± 0.011
x1 = 0.9782 | 2135.29 ± 2.2 | 1.71 ± 0.011
x1 = 1 | 2179.59 ± 2.2 | 1.733 ± 0.011

BrCCBr [1,2-dibromoethane]
[2]
Settings | mass density [kg/m3] | viscosity [mPa·s]
– | 2179.59 ± 2.2 | 1.733 ± 0.011

CCCCCCO [hexan-1-ol]
[2]
Settings | mass density [kg/m3] | viscosity [mPa·s]
– | 818.856 ± 0.42 | 5.291 ± 0.03

CCCCCCO [hexan-1-ol] + BrCCBr
[1], x2 = 0
Settings | mass density [kg/m3] | viscosity [mPa·s]
– | 818.856 ± 0.42 | 5.291 ± 0.03

CCCCCCO [hexan-1-ol] + ClC(Cl)=C(Cl)Cl
[1], x2 = 0
Settings | mass density [kg/m3] | viscosity [mPa·s]
– | 818.856 ± 0.42 | 5.291 ± 0.03

ClC(Cl)=C(Cl)Cl [tetrachloroethene] + CCCCCCO
[1]
Settings | mass density [kg/m3] | viscosity [mPa·s]
x1 = 0.0688 | 864.637 ± 0.38 | 4.756 ± 0.031
x1 = 0.123 | 901.521 ± 0.33 | 4.351 ± 0.029
x1 = 0.2457 | 987.759 ± 0.22 | 3.493 ± 0.024
x1 = 0.3618 | 1072.99 ± 0.31 | 2.772 ± 0.02
x1 = 0.4502 | 1140.46 ± 0.41 | 2.308 ± 0.017
x1 = 0.5583 | 1226.3 ± 0.55 | 1.853 ± 0.014
x1 = 0.6518 | 1303.62 ± 0.68 | 1.534 ± 0.012
x1 = 0.7068 | 1350.53 ± 0.76 | 1.382 ± 0.01
x1 = 0.7419 | 1381.18 ± 0.81 | 1.297 ± 0.01
x1 = 0.7797 | 1414.65 ± 0.87 | 1.213 ± 0.009
x1 = 0.8315 | 1461.44 ± 0.95 | 1.116 ± 0.009
x1 = 0.8718 | 1498.8 ± 1 | 1.051 ± 0.008
x1 = 0.9179 | 1542.25 ± 1.1 | 0.982 ± 0.008
x1 = 0.9504 | 1573.61 ± 1.2 | 0.942 ± 0.007
x1 = 1 | 1622.74 ± 1.2 | 0.89 ± 0.007

ClCCCl [1,2-dichloroethane] + CCCCCCO
[1]
Settings | mass density [kg/m3] | viscosity [mPa·s]
x1 = 0.037 | 828.769 ± 0.68 | 5.008 ± 0.032
x1 = 0.0769 | 839.847 ± 0.69 | 4.696 ± 0.03
x1 = 0.1499 | 860.583 ± 0.68 | 4.191 ± 0.027
x1 = 0.2147 | 879.725 ± 0.7 | 3.787 ± 0.025
x1 = 0.2935 | 904.954 ± 0.73 | 3.292 ± 0.023
x1 = 0.3952 | 940.475 ± 0.75 | 2.726 ± 0.02
x1 = 0.4532 | 962.107 ± 0.82 | 2.405 ± 0.018
x1 = 0.5596 | 1005.05 ± 0.84 | 1.894 ± 0.015
x1 = 0.6113 | 1027.55 ± 0.94 | 1.677 ± 0.013
x1 = 0.6971 | 1067.98 ± 1 | 1.372 ± 0.011
x1 = 0.7791 | 1111.06 ± 1.1 | 1.137 ± 0.009
x1 = 0.8563 | 1155.16 ± 1.3 | 0.977 ± 0.008
x1 = 0.9335 | 1205.43 ± 1.4 | 0.873 ± 0.007
x1 = 0.979 | 1236.99 ± 1.5 | 0.833 ± 0.007
x1 = 1 | 1252.77 ± 0.6 | 0.827 ± 0.007

ClC(Cl)=C(Cl)Cl [tetrachloroethene]
[2]
Settings | mass density [kg/m3] | viscosity [mPa·s]
– | 1622.74 ± 1.2 | 0.89 ± 0.007

ClCCCl [1,2-dichloroethane]
[2]
Settings | mass density [kg/m3] | viscosity [mPa·s]
– | 1252.77 ± 0.6 | 0.827 ± 0.007

CCCCCCO [hexan-1-ol] + ClCCCl
[1], x2 = 0
Settings | mass density [kg/m3] | viscosity [mPa·s]
– | 818.856 ± 0.42 | 5.291 ± 0.03
